Assay results reported in patent US20230129866A1 (PureTech LYT 100, Inc., priority 2020, published 2023).
Like-named read-outs stand apart in the source and are kept apart here.

Assays:
[1] = human, in vivo, po
LPS-induced plasma TNFα = test: LPS-induced plasma TNF-α after oral pretreatment in rats; assay type: in vivo, Sprague-Dawley rats; settings: Mean ± St. Dev., n = 6-8; for Plasma TNFα concentrations 4 hours after LPS: vehicle 693 ± 553; for Plasma TNFα concentrations 1.5 hours after LPS: vehicle 75389 ± 29107
Protocol: (§1) LPS was diluted with sterile saline to […] and sonicated at 40° C. for 20 minutes to generate a stock solution and stored at 4° C. Each day of use, the stock solution was further diluted to 0.03 mg/mL in sterile saline.
(§2) Male Sprague-Dawley rats with indwelling femoral and jugular venous catheters (n=6-8 per dose and test article group) were used in this study. […] Sixty minutes after the oral dose, 0.03 mg/kg of LPS in 1 mL/kg saline was infused into the jugular vein.
(§3) Blood samples were collected from the femoral vein into heparin-coated syringes 15 minutes prior to the LPS infusion (45 minutes after oral doses of test article), 90 minutes after the LPS infusion and 4 hours after the LPS infusion. Plasma was prepared by centrifugation of the blood samples at 14,000 rpm for 10 minutes. Plasma samples were stored at −70 ° C. until analysis.

[2] = cited from earlier work
[3] = rat, in vivo
Protocol: The original male TK animals received 1000 mg/kg of SD-559 on Day 1 and continued on study. The protocol was amended to add additional TK male animals in Group 6 for Day 1 collection of TK samples at 875 mg/kg.
Blood samples were collected from 3 subsets of 3 animals/sex on Day 1 and Day 28 at pre-dose, 0.25, 0.5, 1, 2, 4. 8 and 24 hours (hr) post-dose for groups 2 to 6 and from one subset of 3 animals/sex at 0.25 hr post-dose for the vehicle group (group 1). […] Non-compartmental analysis (NCA) of plasma concentration data was conducted using Phoenix® WinNonlin®, version 8.0.

[4] = cited from earlier work; remark: listed apart in the source
LPS-induced plasma IL-6 = LPS-induced plasma IL-6 after oral pretreatment in rats; assay type: in vivo, Sprague-Dawley rats; settings: Mean ± St. Dev, n = 6-8; for Plasma IL-6 concentrations 4 hours after LPS: vehicle 13989 ± 6125; for Plasma IL-6 concentrations 1.5 hours after LPS: vehicle 40423 ± 8653
Protocol: as §1, §2, §3

[5] = humans, cited from earlier work
[6] = 200 mg SD-559 (pirfenidone) BID, Huang et al.; in ng/mL; cited from earlier work
[7] = 30 mg/kg oral pretreatment 1 hour prior to LPS injection
[8] = 100 mg/kg oral pretreatment 1 hour prior to LPS injection
[9] = 300 mg/kg oral pretreatment 1 hour prior to LPS injection
[10] = Lancaster et al. 2017, frequencies as high as
[11] = multinational post-marketing study
[12] = single-center retrospective observational study, 351 patients
[13] = Pirfenidone @801 mg, Rubino et al.

Question: For `Cc1ccc(=O)n(-c2ccccc2)c1` [Pirfenidone, 5-methyl-1-phenyl-1H-pyridin-2-one], which “Tolerability of single doses” value [1] is on record?
Answer: well tolerated

Question: And the “Plasma TNFα concentrations 4 hours after LPS” value (LPS-induced plasma TNFα; [7])?
Answer: 346 ± 83 pg/mL

Question: What about the “Plasma TNFα concentrations 1.5 hours after LPS” value (LPS-induced plasma TNFα; [7]) of the same molecule?
Answer: 46138 ± 20266 pg/mL

Question: And the “Plasma TNFα concentrations 4 hours after LPS” value (LPS-induced plasma TNFα; [8])?
Answer: 207 ± 92 pg/mL

Question: And the “Plasma TNFα concentrations 1.5 hours after LPS” value (LPS-induced plasma TNFα; [8])?
Answer: 22230 ± 16540 pg/mL

Question: What about the “Plasma TNFα concentrations 4 hours after LPS” value (LPS-induced plasma TNFα; [9]) of the same molecule?
Answer: 131 ± 32 pg/mL

Question: What about the “Plasma TNFα concentrations 1.5 hours after LPS” value (LPS-induced plasma TNFα; [9]) of the same molecule?
Answer: 11495 ± 10753 pg/mL

Question: What about the “Fatigue frequency (TEAE rate)” value [2, 10] of the same molecule?
Answer: ≤ 52.4 per 100PEY

Question: And the “Nausea frequency (TEAE rate)” value [2, 10]?
Answer: ≤ 62.1 per 100 PEY

Question: And the “Patients with permanent treatment discontinuation due to adverse drug reactions” value ([2]; PASSPORT long-term observational safety study, Cottin et al. 2018)?
Answer: 28.7%

Question: And the “Treatment discontinuation rate with predominant gastrointestinal side-effects” value ([2]; b281)?
Answer: > 25%

Question: What about the “Patients who had an adverse event” value ([2]; compassionate use program, Raghu & Thickett 2013) of the same molecule?
Answer: 44%

Question: And the “Patients who experienced an adverse event” value [2, 11]?
Answer: Approximately 73%

Question: What about the “Patients with gastrointestinal symptoms” value [2, 11] of the same molecule?
Answer: 38%

Question: What about the “Patients with an ADR leading to discontinuation” value ([2]; patients aged <65 years) of the same molecule?
Answer: 7.5%

Question: And the “Patients with an ADR leading to dose modification/interruption” value ([2]; patients aged <65 years)?
Answer: 18.0%

Question: What about the “Patients with an ADR leading to discontinuation” value ([2]; patients aged ≥80 years) of the same molecule?
Answer: 20.9%

Question: What about the “Patients with an ADR leading to dose modification/interruption” value ([2]; patients aged ≥80 years) of the same molecule?
Answer: 32.7%

Question: And the “Elevations of AST and ALT levels to >3x ULN” value ([2]; phase III trials)?
Answer: 3.2%

Question: What about the Loss of appetite [2, 12] of the same molecule?
Answer: 17%

Question: What about the Nausea/vomiting [2, 12] of the same molecule?
Answer: 15%

Question: What about the “Share of reported AEs that were GI-related” value [2, 12] of the same molecule?
Answer: 75%

Question: And the “Accumulation after multiple dosing for 28 Days” value [3]?
Answer: No accumulation

Question: What about the “AUC, % Change Fed vs Fasted” value [4, 13] of the same molecule?
Answer: −15%

Question: What about the “Cmax, % Change Fed vs Fasted” value [4, 13] of the same molecule?
Answer: −49%

Question: And the “Tmax, % Change Fed vs Fasted” value [4, 13]?
Answer: +500%

Question: What about the “Increase in Tmax, fed vs fasted” value ([4]; pirfenidone 801 mg dose, prior study) of the same molecule?
Answer: 500%

Question: And the “Plasma IL-6 concentrations 4 hours after LPS” value (LPS-induced plasma IL-6; [7])?
Answer: 8886 ± 5321 pg/mL

Question: What about the “Plasma IL-6 concentrations 1.5 hours after LPS” value (LPS-induced plasma IL-6; [7]) of the same molecule?
Answer: 25173 ± 10651 pg/mL

Question: And the “Plasma IL-6 concentrations 4 hours after LPS” value (LPS-induced plasma IL-6; [8])?
Answer: 4603 ± 2524 pg/mL

Question: What about the “Plasma IL-6 concentrations 1.5 hours after LPS” value (LPS-induced plasma IL-6; [8]) of the same molecule?
Answer: 26226 ± 8434 pg/mL

Question: And the “Plasma IL-6 concentrations 4 hours after LPS” value (LPS-induced plasma IL-6; [9])?
Answer: 2361 ± 1185 pg/mL

Question: And the “Plasma IL-6 concentrations 1.5 hours after LPS” value (LPS-induced plasma IL-6; [9])?
Answer: 18692 ± 9996 pg/mL

Question: And the “Share of recovered drug material excreted as unchanged pirfenidone” value ([5]; urine)?
Answer: less than 1%

Question: What about the “Oral dose excreted in urine” value [5] of the same molecule?
Answer: approximately 80%

Question: What about the “observed Cmax” value [6] of the same molecule?
Answer: 2305
